Laboratory results reported in ChEMBL document CHEMBL3638901, “Thienopyrazole derivative having PDE7 inhibitory activity” (2014).
pIC50: −log10 of the molar value.

Target: High affinity 3',5'-cyclic-AMP phosphodiesterase 7A (Homo sapiens, UniProt Q13946)
Assay: Inhibition Assay: The PDE 7 (phosphodiesterase VII) inhibiting effect of the compounds of the present invention was performed by the following method, which was modified assay method described in Biochemical. Pharmacol. 48(6), 1219-1223 (1994). (1) The active fraction of PDE 7 (phosphodiesterase VII) was obtained. That is, MOLT-4 (obtainable from ATCC as ATCC No. CRL-1582), which was cell line of human acute lymphoblastic […] T cells, was incubated in RPMI1640 culture medium containing 10% fetal bovine serum to obtain 5x10^8 MOLT-4 cells. The cells were collected by centrifugation and suspended with 10 mL of buffer solution A [25 mM of tris-HCl, 5 mM of 2-mercaptoethnol, 2 mM of benzamidine, 2 mM of EDTA, 0.1 mM of 4-(2-aminoethyl)benzensulfonyl hydrochloride; pH 7.5], then homogenized by Polytron homogenizer. The homogenate were centrifuged under 25,000xG for 10 minutes at 4 C. The supernatant was separated and thus obtained supernatant was further centrifuged under 100,000xG for 60 minutes.

Chain of High affinity 3',5'-cyclic-AMP phosphodiesterase 7A (Q13946 whole entry): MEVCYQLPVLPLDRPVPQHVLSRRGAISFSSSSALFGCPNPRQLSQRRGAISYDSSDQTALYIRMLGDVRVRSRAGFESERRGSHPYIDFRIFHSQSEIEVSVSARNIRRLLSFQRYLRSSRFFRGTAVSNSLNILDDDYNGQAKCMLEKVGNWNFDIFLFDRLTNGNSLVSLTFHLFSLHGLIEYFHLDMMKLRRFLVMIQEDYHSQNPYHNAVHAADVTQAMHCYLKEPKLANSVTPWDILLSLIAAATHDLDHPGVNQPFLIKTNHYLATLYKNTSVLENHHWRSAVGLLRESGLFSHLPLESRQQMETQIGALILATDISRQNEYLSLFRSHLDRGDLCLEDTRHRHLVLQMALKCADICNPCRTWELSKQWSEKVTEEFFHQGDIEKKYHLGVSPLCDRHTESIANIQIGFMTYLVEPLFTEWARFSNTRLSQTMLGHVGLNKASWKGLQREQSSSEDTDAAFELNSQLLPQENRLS

## Cc1nn(C2CCCCC2)c2sc(C(=O)Nc3ccc(N4CCOCC4)cc3)cc12
  pIC50: 7.47

## Cc1nn(C2CCCCC2)c2sc(C(=O)NC3CC[C@@H](C(=O)N(C)C)C3)cc12 (stereo partly specified)
  pIC50: 7.89

## COc1cc(NC(=O)c2cc3c(C)nn(C4CCCCC4)c3s2)ccc1C(=O)N1CCC(O)CC1
  pIC50: 7.19

## Cc1nn(C2CCCCC2)c2sc(C(=O)Nc3ccc(N4CCN(C)CC4)c(Cl)c3)cc12
  pIC50: 7.26

## COc1cc(NC(=O)c2cc3c(C)nn(C4CCCCC4)c3s2)ccc1C(=O)N1CCN(C)CC1
  pIC50: 7.07

## Cc1nn(C2CCOCC2)c2sc(C(=O)N[C@H]3CC[C@H](N4CCOCC4)CC3)cc12
  pIC50: 7.62
